In ChEMBL document CHEMBL1201862, “PubChem BioAssay data set” (2004):
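Exposure lasted 48 hours, with cells grown in 96-well plates and compounds tested at five concentrations. GI50 marks 50% less growth.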 The source made the active and inactive calls. Rule as the data show it: active = GI50 up to about 1.1 µM and inactive = higher.

How the values were obtained:
Experiment in all cases: DTP human tumour cell line panel, 48 h
[1] = test system: IGROV-1
[2] = test system: A549
[3] = test system: UO-31
[4] = test system: Malme-3M
[5] = test system: M14
[6] = test system: RXF 631
[7] = test system: OVCAR-4
[8] = test system: HT-29
[9] = test system: MOLT-4
[10] = test system: OVCAR-8
[11] = test system: EKVX
[12] = test system: SF-268
[13] = test system: RXF 393
[14] = test system: HCT-116
[15] = test system: SNB-75
[16] = test system: HOP-62
[17] = test system: UACC-257
[18] = test system: DLD-1
[19] = test system: SNB-78
[20] = test system: ACHN
[21] = test system: DMS-273
[22] = test system: HCT-15
[23] = test system: SF-295
[24] = test system: DMS-114
[25] = test system: SR
[26] = test system: M19-MEL
[27] = test system: CAKI-1
[28] = test system: OVCAR-3
[29] = test system: CCRF-CEM
[30] = test system: COLO 205
[31] = test system: OVCAR-5
[32] = test system: SN12C
[33] = test system: SW-620
[34] = test system: RPMI-8226
[35] = test system: KM12
[36] = test system: HOP-92
[37] = test system: NCI-H522
[38] = test system: NCI-H226
[39] = test system: SK-OV-3
[40] = test system: NCI-H23
[41] = test system: NCI-H460
[42] = test system: SK-MEL-5
[43] = test system: UACC-62
[44] = test system: HL-60
[45] = test system: KM-20L2
[46] = test system: LOX IMVI
[47] = test system: 786-0
[48] = test system: TK-10
[49] = test system: SK-MEL-28
[50] = test system: SF-539
[51] = test system: SK-MEL-2
[52] = test system: LXFL 529
[53] = test system: XF498
[54] = test system: K562
[55] = test system: HCC 2998
[56] = test system: HOP-18
[57] = test system: U-251
[58] = test system: A498
[59] = test system: SNB-19

With COc1cc2c(c(OC)c1OC)-c1ccc(SC)c(=O)cc1C(CC(=O)Oc1cccc(F)c1)C2 (centres undefined) the GI50 [1] was 787 nM (active), the GI50 [2] was 577 nM (active) and the GI50 [3] was 753 nM (active). The GI50 [4] was 267 nM (active), the GI50 [5] was 242 nM (active) and the GI50 [6] was 115 nM (active). The GI50 [7] was 2050 nM (inactive), the GI50 [8] was 184 nM (active) and the GI50 [9] was 444 nM (active). The GI50 [10] was 337 nM (active), the GI50 [11] was 2620 nM (inactive) and the GI50 [12] was 653 nM (active). For the same compound, the GI50 [13] was 129 nM (active), the GI50 [14] was 321 nM (active) and the GI50 [15] was 138 nM (active). For the same compound, the GI50 [16] was 685 nM (active), the GI50 [17] was 14900 nM (inactive) and the GI50 [18] was 397 nM (active). For the same compound, the GI50 [19] was 237 nM (active), the GI50 [20] was 243 nM (active) and the GI50 [21] was 214 nM (active). The GI50 [22] was 220 nM, the GI50 [23] was 75 nM (active) and the GI50 [24] was 240 nM (active). The GI50 [25] was 54.2 nM (active), the GI50 [26] was 263 nM (active) and the GI50 [27] was 1350 nM (inactive). For the same compound, the GI50 [28] was 94.6 nM (active), the GI50 [29] was 228 nM (active) and the GI50 [30] was 153 nM (active). The GI50 [31] was 4550 nM (inactive), the GI50 [32] was 222 nM (active) and the GI50 [33] was 112 nM (active). The GI50 [34] was 165 nM (active), the GI50 [35] was 130 nM (active) and the GI50 [36] was 1240 nM (inactive). For the same compound, the GI50 [37] was 102 nM (active), the GI50 [38] was 184 nM (active) and the GI50 [39] was 38.5 nM (active). For the same compound, the GI50 [40] was 259 nM (active), the GI50 [41] was 212 nM (active) and the GI50 [42] was 411 nM (active). For the same compound, the GI50 [43] was 111 nM (active), the GI50 [44] was 90.6 nM (active) and the GI50 [45] was 81.3 nM (active). For the same compound, the GI50 [46] was 197 nM (active), the GI50 [47] was 114 nM (active) and the GI50 [48] was 61700 nM (inactive). For the same compound, the GI50 [49] was 621 nM (active), the GI50 [50] was 111 nM (active) and the GI50 [51] was 397 nM (active). The GI50 [52] was 316 nM (active), the GI50 [53] was 344 nM (active) and the GI50 [54] was 149 nM (active). For the same compound, the GI50 [55] was 111 nM (active), the GI50 [56] was > 62200 nM (inactive) and the GI50 [57] was 115 nM (active). For the same compound, the GI50 [58] was 54.5 nM (active) and the GI50 [59] was 667 nM (active).
